T1: Mucosa-associated lymphoid tissue lymphoma translocation protein 1 (Homo sapiens, UniProt Q9UDY8)
T1 sequence (Q9UDY8 whole entry): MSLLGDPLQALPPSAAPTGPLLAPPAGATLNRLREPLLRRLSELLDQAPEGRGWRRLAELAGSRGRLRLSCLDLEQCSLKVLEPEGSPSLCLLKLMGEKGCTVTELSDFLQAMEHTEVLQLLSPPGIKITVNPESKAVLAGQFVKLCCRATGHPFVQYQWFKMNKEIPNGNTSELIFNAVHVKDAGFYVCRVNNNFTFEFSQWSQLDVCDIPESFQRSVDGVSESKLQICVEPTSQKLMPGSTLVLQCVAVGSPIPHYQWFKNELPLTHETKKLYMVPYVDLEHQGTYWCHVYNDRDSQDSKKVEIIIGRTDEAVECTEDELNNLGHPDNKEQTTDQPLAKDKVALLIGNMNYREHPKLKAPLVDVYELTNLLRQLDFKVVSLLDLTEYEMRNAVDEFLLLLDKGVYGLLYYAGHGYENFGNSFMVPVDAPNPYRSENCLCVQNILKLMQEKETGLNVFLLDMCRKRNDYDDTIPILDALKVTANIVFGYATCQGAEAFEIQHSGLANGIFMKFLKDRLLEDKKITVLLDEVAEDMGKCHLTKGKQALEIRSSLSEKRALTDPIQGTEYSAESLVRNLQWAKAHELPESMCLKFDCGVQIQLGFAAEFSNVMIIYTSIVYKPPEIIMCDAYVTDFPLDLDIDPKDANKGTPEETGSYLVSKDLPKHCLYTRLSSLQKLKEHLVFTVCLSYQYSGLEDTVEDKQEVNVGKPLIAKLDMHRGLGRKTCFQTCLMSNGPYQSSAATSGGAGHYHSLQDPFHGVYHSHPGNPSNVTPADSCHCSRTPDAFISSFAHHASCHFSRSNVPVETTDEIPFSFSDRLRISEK

T2: Mucosa-associated lymphoid tissue lymphoma translocation protein 1 (Homo sapiens) (UniProt Q9UDY8)
T2 sequence (whole entry): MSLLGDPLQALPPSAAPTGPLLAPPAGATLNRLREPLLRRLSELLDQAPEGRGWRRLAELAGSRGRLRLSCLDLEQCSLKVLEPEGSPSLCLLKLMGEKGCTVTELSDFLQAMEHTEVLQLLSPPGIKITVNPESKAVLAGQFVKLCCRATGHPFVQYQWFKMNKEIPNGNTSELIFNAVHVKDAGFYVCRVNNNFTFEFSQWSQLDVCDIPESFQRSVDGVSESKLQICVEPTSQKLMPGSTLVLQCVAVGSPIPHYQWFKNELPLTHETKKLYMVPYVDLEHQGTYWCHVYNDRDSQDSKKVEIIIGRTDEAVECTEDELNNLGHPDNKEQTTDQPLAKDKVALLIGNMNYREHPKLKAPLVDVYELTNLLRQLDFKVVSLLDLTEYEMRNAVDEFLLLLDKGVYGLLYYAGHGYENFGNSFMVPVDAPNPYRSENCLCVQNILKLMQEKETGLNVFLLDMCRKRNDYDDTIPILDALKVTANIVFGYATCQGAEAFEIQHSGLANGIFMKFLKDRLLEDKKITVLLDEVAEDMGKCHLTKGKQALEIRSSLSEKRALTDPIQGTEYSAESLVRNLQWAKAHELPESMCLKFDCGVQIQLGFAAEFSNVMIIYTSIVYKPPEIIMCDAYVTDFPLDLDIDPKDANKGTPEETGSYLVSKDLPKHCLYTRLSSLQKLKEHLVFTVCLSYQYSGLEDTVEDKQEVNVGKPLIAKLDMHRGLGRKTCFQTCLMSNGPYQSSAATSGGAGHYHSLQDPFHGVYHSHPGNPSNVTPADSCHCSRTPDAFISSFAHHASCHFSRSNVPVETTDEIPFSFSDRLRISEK


Assays:
[1] = target: T1, Mucosa-associated lymphoid tissue lymphoma translocation protein 1; assay: Inhibition of MALT1 (unknown origin)
[2] = target: T2, Mucosa-associated lymphoid tissue lymphoma translocation protein 1 (Homo sapiens); assay: Inhibition of MALT1 (unknown origin) at 25 uM relative to control
[3] = target: Nuclear factor NF-kappa-B complex (Homo sapiens, UniProt P19838+Q00653+Q04206); assay: Inhibition of NF-kappaB (unknown origin); assay type: protein-complex assay
[4] = substrate: CN(C)CCNC(=O)c1cc(-c2ccc(Cl)cc2)n(-c2ccc(Cl)cc2)n1; conditions: Homo sapiens; dose 0.5 µM
Description: Non-competitive inhibition of MALT1 (unknown origin) assessed as Michaelis-constant at 0.5 uM by Michaelis-Menten analysis (Rvb = 246.9 microM)

Nuclear factor NF-kappa-B complex, sequence (P19838 1-433 limits assumed): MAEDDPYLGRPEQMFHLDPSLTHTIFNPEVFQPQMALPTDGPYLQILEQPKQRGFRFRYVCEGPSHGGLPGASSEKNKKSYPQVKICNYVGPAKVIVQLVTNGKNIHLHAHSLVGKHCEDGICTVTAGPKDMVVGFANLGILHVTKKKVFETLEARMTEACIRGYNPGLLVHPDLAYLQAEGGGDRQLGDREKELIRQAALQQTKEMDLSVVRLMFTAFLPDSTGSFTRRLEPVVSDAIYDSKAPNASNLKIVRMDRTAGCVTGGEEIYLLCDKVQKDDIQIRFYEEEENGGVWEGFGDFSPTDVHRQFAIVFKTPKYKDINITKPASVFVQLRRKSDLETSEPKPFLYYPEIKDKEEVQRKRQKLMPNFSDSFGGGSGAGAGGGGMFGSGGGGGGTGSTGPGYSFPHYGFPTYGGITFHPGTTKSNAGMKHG
Nuclear factor NF-kappa-B complex, sequence (Q00653 1-454 limits assumed): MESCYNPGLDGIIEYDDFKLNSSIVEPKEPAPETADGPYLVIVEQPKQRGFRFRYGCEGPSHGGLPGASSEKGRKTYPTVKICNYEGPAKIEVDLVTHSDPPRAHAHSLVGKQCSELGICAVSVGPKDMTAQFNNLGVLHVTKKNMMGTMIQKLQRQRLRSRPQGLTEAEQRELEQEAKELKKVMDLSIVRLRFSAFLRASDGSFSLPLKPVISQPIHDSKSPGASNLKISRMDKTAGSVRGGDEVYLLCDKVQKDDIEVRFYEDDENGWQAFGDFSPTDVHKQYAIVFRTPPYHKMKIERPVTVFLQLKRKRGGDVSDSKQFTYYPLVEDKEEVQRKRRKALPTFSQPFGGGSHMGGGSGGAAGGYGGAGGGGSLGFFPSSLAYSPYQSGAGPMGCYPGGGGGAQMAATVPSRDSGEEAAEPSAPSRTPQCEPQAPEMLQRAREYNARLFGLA
Nuclear factor NF-kappa-B complex, sequence (Q04206 whole entry): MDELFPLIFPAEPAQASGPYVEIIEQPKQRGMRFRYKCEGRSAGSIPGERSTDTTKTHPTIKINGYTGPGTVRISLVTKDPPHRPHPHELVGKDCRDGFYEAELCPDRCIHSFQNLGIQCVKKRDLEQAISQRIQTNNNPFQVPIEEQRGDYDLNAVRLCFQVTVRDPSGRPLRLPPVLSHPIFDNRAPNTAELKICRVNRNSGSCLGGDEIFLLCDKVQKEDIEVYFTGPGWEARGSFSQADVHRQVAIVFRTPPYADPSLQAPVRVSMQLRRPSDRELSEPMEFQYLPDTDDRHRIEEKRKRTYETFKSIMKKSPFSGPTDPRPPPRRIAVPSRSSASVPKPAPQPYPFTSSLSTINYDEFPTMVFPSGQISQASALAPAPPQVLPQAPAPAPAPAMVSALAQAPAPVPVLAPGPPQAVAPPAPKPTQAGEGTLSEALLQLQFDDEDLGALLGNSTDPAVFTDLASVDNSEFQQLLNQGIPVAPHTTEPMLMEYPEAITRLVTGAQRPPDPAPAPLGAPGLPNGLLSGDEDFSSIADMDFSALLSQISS

| Molecule | IC50 [1] [µM] | inhibition [2] [%] | IC50 [3] [µM] | Km [4] [µM] |
| --- | --- | --- | --- | --- |
| CS(=O)(=O)NCCNC(=O)c1cc(-c2ccc(Cl)cc2)n(-c2ccc(Cl)cc2)n1 | 4.37 |  |  |  |
| NCCNC(=O)c1cc(-c2ccc(Cl)cc2)n(-c2ccc(Cl)cc2)n1 | 1.98 |  |  |  |
| CN1CCCC(NC(=O)c2cc(-c3ccc(Cl)cc3)n(-c3ccc(Cl)cc3)n2)C1 (stereo unspecified) | 1.7 |  |  |  |
| CNC(=O)c1cc(-c2ccc(OC(F)(F)F)cc2)n(-c2ccc(Cl)cc2)n1 | > 25 | 38 |  |  |
| O=C(c1cc(-c2ccc(Cl)cc2)n(-c2ccc(Cl)cc2)n1)N1CCCC1 | > 25 |  |  |  |
| NC(=O)CCNC(=O)c1cc(-c2ccc(Cl)cc2)n(-c2ccc(Cl)cc2)n1 | 13.4 |  |  |  |
| CNC(=O)c1cc(-c2cccc(Cl)c2)n(-c2ccc(Cl)cc2)n1 | > 25 | 43 |  |  |
| O=C(NCCCO)c1cc(-c2ccc(Cl)cc2)n(-c2ccc(Cl)cc2)n1 | 12.4 |  |  |  |
| CNC(=O)c1cc(-c2ccc(CO)cc2)n(-c2ccc(Cl)cc2)n1 | > 25 | 19 |  |  |
| NCCCNC(=O)c1cc(-c2ccc(Cl)cc2)n(-c2ccc(Cl)cc2)n1 | 7.39 |  |  |  |
| CN(C)C(=O)c1cc(-c2ccc(Cl)cc2)n(-c2ccc(Cl)cc2)n1 | 21.2 |  |  |  |
| CNC(=O)c1cc(-c2ccccc2Cl)n(-c2ccc(Cl)cc2)n1 | > 25 | 23 |  |  |
| CN(C)CCNC(=O)c1cc(-c2ccc(Cl)cc2)n(-c2ccc(Cl)cc2)n1 | 0.49 |  | 5.41 |  |
| CNC(=O)c1cc(-c2ccc(F)cc2)n(-c2ccc(Cl)cc2)n1 | > 25 | 47 |  |  |
| CNC(=O)c1cc(-c2ccc(OC)cc2)n(-c2ccc(Cl)cc2)n1 | 6.55 | 80 |  |  |
| CC(=O)NCCNC(=O)c1cc(-c2ccc(Cl)cc2)n(-c2ccc(Cl)cc2)n1 | 3.3 |  |  |  |
| CNC(=O)c1cc(-c2ccccc2)n(-c2ccc(Cl)cc2)n1 | 16.8 | 61 |  |  |
| CNC(=O)c1cc(-c2ccc(Cl)cc2)n(-c2ccccc2)n1 | 19.8 | 59 |  |  |
| CNCCNC(=O)c1cc(-c2ccc(Cl)cc2)n(-c2ccc(Cl)cc2)n1 | 0.8 |  |  |  |
| CNC(=O)c1cc(-c2ccc(C(F)(F)F)cc2)n(-c2ccc(Cl)cc2)n1 | > 25 | 47 |  |  |
| Mucosa-associated lymphoid tissue lymphoma translocation protein 1 (Homo sapiens), Q9UDY8 (protein) MSLLGDPLQALPPSAAPTGPLLAPPAGATLNRLREPLLRRLSELLDQAPEGRGWRRLAELAGSRGRLRLSCLDLEQCSLKVLEPEGSPSLCLLKLMGEKGCTVTELSDFLQAMEHTEVLQLLSPPGIKITVNPESKAVLAGQFVKLCCRATGHPFVQYQWFKMNKEIPNGNTSELIFNAVHVKDAGFYVCRVNNNFTFEFSQWSQLDVCDIPESFQRSVDGVSESKLQICVEPTSQKLMPGSTLVLQCVAVGSPIPHYQWFKNELPLTHETKKLYMVPYVDLEHQGTYWCHVYNDRDSQDSKKVEIIIGRTDEAVECTEDELNNLGHPDNKEQTTDQPLAKDKVALLIGNMNYREHPKLKAPLVDVYELTNLLRQLDFKVVSLLDLTEYEMRNAVDEFLLLLDKGVYGLLYYAGHGYENFGNSFMVPVDAPNPYRSENCLCVQNILKLMQEKETGLNVFLLDMCRKRNDYDDTIPILDALKVTANIVFGYATCQGAEAFEIQHSGLANGIFMKFLKDRLLEDKKITVLLDEVAEDMGKCHLTKGKQALEIRSSLSEKRALTDPIQGTEYSAESLVRNLQWAKAHELPESMCLKFDCGVQIQLGFAAEFSNVMIIYTSIVYKPPEIIMCDAYVTDFPLDLDIDPKDANKGTPEETGSYLVSKDLPKHCLYTRLSSLQKLKEHLVFTVCLSYQYSGLEDTVEDKQEVNVGKPLIAKLDMHRGLGRKTCFQTCLMSNGPYQSSAATSGGAGHYHSLQDPFHGVYHSHPGNPSNVTPADSCHCSRTPDAFISSFAHHASCHFSRSNVPVETTDEIPFSFSDRLRISEK |  |  |  | 234 |

Further lines, with some results ahead:

| IC50 [1] [µM] | inhibition [2] [%] | IC50 [3] [µM] | Molecule | Km [4] [µM] |
| --- | --- | --- | --- | --- |
| 2.22 |  |  | CN(C)CCCCNC(=O)c1cc(-c2ccc(Cl)cc2)n(-c2ccc(Cl)cc2)n1 |  |
| > 25 | 7.7 |  | CNC(=O)c1cc(-c2ccc(Cl)cc2)n(C)n1 |  |
| > 25 | 46 |  | CNC(=O)c1cc(-c2ccc(Cl)cc2)n(-c2ccccc2Cl)n1 |  |
| 0.521 |  |  | CN1CCCCC1CNC(=O)c1cc(-c2ccc(Cl)cc2)n(-c2ccc(Cl)cc2)n1 (stereo unspecified) |  |
| > 25 | 5.7 |  | CNC(=O)c1cc(-c2ccc(S(C)(=O)=O)cc2)n(-c2ccc(Cl)cc2)n1 |  |
| 2.63 |  |  | CN(C)CCCNC(=O)c1cc(-c2ccc(Cl)cc2)n(-c2ccc(Cl)cc2)n1 |  |
| 0.819 |  |  | O=C(NCC1COCCN1)c1cc(-c2ccc(Cl)cc2)n(-c2ccc(Cl)cc2)n1 (stereo unspecified) |  |
| > 25 | 21 |  | CNC(=O)c1cc(-c2ccc(OC)nc2)n(-c2ccc(Cl)cc2)n1 |  |
| 2.1 |  |  | CCN1CCC[C@@H]1CNC(=O)c1cc(-c2ccc(Cl)cc2)n(-c2ccc(Cl)cc2)n1 |  |
| > 25 | 31 |  | CNC(=O)c1cc(-c2ccc(C#N)cc2)n(-c2ccc(Cl)cc2)n1 |  |
| > 25 | 26 |  | CNC(=O)c1cc(-c2ccsc2)n(-c2ccc(Cl)cc2)n1 |  |
| 2.01 |  |  | CN1CCOC[C@H]1CNC(=O)c1cc(-c2ccc(Cl)cc2)n(-c2ccc(Cl)cc2)n1 |  |
|  | 63 |  | CNC(=O)c1cc(-c2ccc(Cl)cc2)n(C2CCCCC2)n1 |  |
| 6.55 |  |  | O=C(NCCO)c1cc(-c2ccc(Cl)cc2)n(-c2ccc(Cl)cc2)n1 |  |
| > 25 |  |  | O=C(NCC1CCCCC1)c1cc(-c2ccc(Cl)cc2)n(-c2ccc(Cl)cc2)n1 |  |
| 7.01 | 72 | 9.34 | CNC(=O)c1cc(-c2ccc(Cl)cc2)n(-c2ccc(Cl)cc2)n1 |  |
| > 25 | 20 |  | CNC(=O)c1cc(-c2ccco2)n(-c2ccc(Cl)cc2)n1 |  |
| 0.993 |  |  | CN1CCC(O)CC1CNC(=O)c1cc(-c2ccc(Cl)cc2)n(-c2ccc(Cl)cc2)n1 (stereo unspecified) |  |
| > 25 |  |  | O=C(NCCc1ccccc1)c1cc(-c2ccc(Cl)cc2)n(-c2ccc(Cl)cc2)n1 |  |
| 10.6 |  |  | CN(C)C1CCN(C(=O)c2cc(-c3ccc(Cl)cc3)n(-c3ccc(Cl)cc3)n2)C1 (stereo unspecified) |  |
|  | 57 |  | CNC(=O)c1cc(-c2ccc(Cl)cc2)n(-c2cccc(Cl)c2)n1 |  |
| > 25 | 16 |  | CNC(=O)c1cc(-c2ccoc2)n(-c2ccc(Cl)cc2)n1 |  |
| 3.43 |  |  | CSc1ccc2c(c1)N(CCC1CCCCN1C)c1ccccc1S2 (stereo unspecified) [THIORIDAZINE] |  |
| 16.3 | 57 |  | CNC(=O)c1cc(-c2ccc(Cl)cc2)n(Cc2ccccc2)n1 |  |

Reference: ChEMBL document CHEMBL4814035, “Structure-activity relationship studies of 3-substituted pyrazoles as novel allosteric inhibitors of MALT1 protease” (Bioorg Med Chem Lett, 2021)
